Blank lines part the entries; values can stand above or below the molecule they belong to.
Key:
Thymidylate synthase [1] = molecular target: T1, Thymidylate synthase (Lactobacillus casei, UniProt P00469); assay: Inhibition of amethopterin-resistant Lactobacillus casei thymidylate synthetase-catalyzed 5-BrdUMP dehalogenation by absorbance analysis in absence of CH2-H4-folate; design: species or system Lacticaseibacillus casei; details: read-out: Ki(app)
T1 sequence (P00469 whole entry): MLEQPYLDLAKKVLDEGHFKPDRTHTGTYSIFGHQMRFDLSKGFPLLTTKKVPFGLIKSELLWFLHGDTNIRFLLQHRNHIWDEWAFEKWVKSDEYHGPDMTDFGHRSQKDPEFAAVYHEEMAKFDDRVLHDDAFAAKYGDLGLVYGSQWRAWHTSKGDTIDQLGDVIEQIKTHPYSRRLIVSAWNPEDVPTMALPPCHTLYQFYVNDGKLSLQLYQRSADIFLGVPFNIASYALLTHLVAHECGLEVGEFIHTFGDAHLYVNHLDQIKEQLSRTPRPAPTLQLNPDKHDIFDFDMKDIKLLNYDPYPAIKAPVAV

Thymidylate synthase [2] = molecular target: T1, Thymidylate synthase; assay: Inhibition of amethopterin-resistant Lactobacillus casei thymidylate synthetase-catalyzed dTMP formation using dUMP as substrate by spectrophotometric analysis in presence of CH2-H4-folate; design: species or system Lacticaseibacillus casei; details: read-out: Ki(app)
[3] = molecular target: T2, Thymidylate synthase (Lactobacillus casei) (UniProt P00469); assay: Activity at amethopterin-resistant Lactobacillus casei thymidylate synthetase assessed as rate of dTMP formation by absorbance analysis in presence of CH2-H4-folate; details: Lacticaseibacillus casei
T2 sequence (whole entry): T1 sequence (P00469 whole entry)

[4] = substrate: O=c1[nH]c(=O)n([C@H]2C[C@H](O)[C@@H](COP(=O)(O)O)O2)cc1Br; assay: Activity at amethopterin-resistant Lactobacillus casei thymidylate synthetase by absorbance analysis; details: Lacticaseibacillus casei
[5] = substrate: O=c1[nH]c(=O)n([C@H]2C[C@H](O)[C@@H](COP(=O)(O)O)O2)cc1I; assay: as above; details: Lacticaseibacillus casei
[6] = substrate: O=c1ccn([C@H]2C[C@H](O)[C@@H](COP(=O)(O)O)O2)c(=O)[nH]1; details: Lacticaseibacillus casei
Description: Activity at amethopterin-resistant Lactobacillus casei thymidylate synthetase by spectrophotometric analysis in presence of CH2-H4-folate

Molecule: O=c1ccn([C@H]2C[C@H](O)[C@@H](COP(=O)(O)O)O2)c(=O)[nH]1 [DEOXYURIDINE MONOPHOSPHATE]
Ki (Thymidylate synthase [1]): 2260 nM

Molecule: O=c1[nH]c(=O)n([C@H]2C[C@H](O)[C@@H](COP(=O)(O)O)O2)cc1I
Activity [3]: 2.5%
Ki (Thymidylate synthase [2]): 1600 nM

Molecule: Cc1cn([C@H]2C[C@H](O)[C@@H](COP(=O)(O)O)O2)c(=O)[nH]c1=O [THYMIDINE MONOPHOSPHATE]
Ki (Thymidylate synthase [1]): 8690 nM
Ki (Thymidylate synthase [2]): 15500 nM

B1: Thymidylate synthase (Lactobacillus casei), P00469 (protein)
chain: T1 sequence (P00469 whole entry)
Km [4]: 5.7 µM
Km [5]: 1.44 µM
Km [6]: 5.2 µM

Other lines, results leading:

Ki (Thymidylate synthase [1]): 9390 nM
Ki (Thymidylate synthase [2]): 190 nM
Molecule: O=c1[nH]c(=O)n([C@H]2C[C@H](O)[C@@H](COP(=O)(O)O)O2)cc1Cl

Ki (Thymidylate synthase [2]): 39 nM
Molecule: O=c1[nH]c(=O)n([C@H]2C[C@H](O)[C@@H](COP(=O)(O)O)O2)cc1C(F)(F)F

Activity [3]: 3%
Ki (Thymidylate synthase [2]): 1400 nM
Molecule: O=c1[nH]c(=O)n([C@H]2C[C@H](O)[C@@H](COP(=O)(O)O)O2)cc1Br

Ki (Thymidylate synthase [2]): 17 nM
Molecule: O=Cc1cn([C@H]2C[C@H](O)[C@@H](COP(=O)(O)O)O2)c(=O)[nH]c1=O
